Laboratory results reported in article PMC11396129, “Oxindole–benzothiazole hybrids as CDK2 inhibitors and anticancer agents: design, synthesis and biological evaluation” (BMC Chemistry, 2024).

What was measured:
K-562 = assay: NCI 60 panel growth inhibition (SRB), leukemia; assay type: cell-based, human
How it was run: (§1)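 Two-stage NCI process: single-dose screen, then five-concentration testing of selected compounds. Growth relative to time-zero and untreated controls was derived from SRB absorbance, and TGI from the concentration giving Ti = Tz.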

MOLT-4 = assay: NCI 60 panel growth inhibition (SRB), leukemia; assay type: cell-based, human
How it was run: as §1

SR = assay: NCI 60 panel growth inhibition (SRB), leukemia; assay type: cell-based, human
How it was run: as §1

COLO 205 = assay: NCI 60 panel growth inhibition (SRB), colon cancer; assay type: cell-based, human; conditions: Homo sapiens; COLO 205, five dose
How it was run: as §1

HCC-2998 = assay: NCI 60 panel growth inhibition (SRB), colon cancer; assay type: cell-based, human
How it was run: as §1

HCT-116 = assay: NCI 60 panel growth inhibition (SRB), colon cancer; assay type: cell-based, human
How it was run: as §1

HCT-15 = assay: NCI 60 panel growth inhibition (SRB), colon cancer; assay type: cell-based, human
How it was run: as §1

HT29 = assay: NCI 60 panel growth inhibition (SRB), colon cancer; assay type: cell-based, human
How it was run: as §1

KM12 = assay: NCI 60 panel growth inhibition (SRB), colon cancer; assay type: cell-based, human
How it was run: as §1

SW-620 = assay: NCI 60 panel growth inhibition (SRB), colon cancer; assay type: cell-based, human
How it was run: as §1

SF-268 = assay: NCI 60 panel growth inhibition (SRB), CNS cancer; assay type: cell-based, human
How it was run: as §1

SF-295 = assay: NCI 60 panel growth inhibition (SRB), CNS cancer; assay type: cell-based, human
How it was run: as §1

SF-539 = assay: NCI 60 panel growth inhibition (SRB), CNS cancer; assay type: cell-based, human
How it was run: as §1

SNB-19 = assay: NCI 60 panel growth inhibition (SRB), CNS cancer; assay type: cell-based, human
How it was run: as §1

SNB-75 = assay: NCI 60 panel growth inhibition (SRB), CNS cancer; assay type: cell-based, human; conditions: SNB-75, 10 μM
How it was run: as §1

U251 = assay: NCI 60 panel growth inhibition (SRB), CNS cancer; assay type: cell-based, human
How it was run: as §1

LOX IMVI = assay: NCI 60 panel growth inhibition (SRB), melanoma; assay type: cell-based, human
How it was run: as §1

M14 = assay: NCI 60 panel growth inhibition (SRB), melanoma; assay type: cell-based, human
How it was run: as §1

MALME-3M = assay: NCI 60 panel growth inhibition (SRB), melanoma; assay type: cell-based, human
How it was run: as §1

MDA-MB-435 = assay: NCI 60 panel growth inhibition (SRB), melanoma; assay type: cell-based, human
How it was run: as §1

SK-MEL-28 = assay: NCI 60 panel growth inhibition (SRB), melanoma; assay type: cell-based, human
How it was run: as §1

SK-MEL-2 = assay: NCI 60 panel growth inhibition (SRB), melanoma; assay type: cell-based, human
How it was run: as §1

SK-MEL-5 = assay: NCI 60 panel growth inhibition (SRB), melanoma; assay type: cell-based, human
How it was run: as §1

UACC-257 = assay: NCI 60 panel growth inhibition (SRB), melanoma; assay type: cell-based, human
How it was run: as §1

UACC-62 = assay: NCI 60 panel growth inhibition (SRB), melanoma; assay type: cell-based, human
How it was run: as §1

DU-145 = assay: NCI 60 panel growth inhibition (SRB), prostate cancer; assay type: cell-based, human
How it was run: as §1

PC-3 = assay: as above; assay type: cell-based, human
How it was run: as §1

CDK2 = target: T1, CDK2 (Homo sapiens, UniProt P24941); assay: CDK2 kinase assay (BPS kit, Kinase-Glo Max); assay type: biochemical
T1 construct: purchased BPS Biosciences 79599

VEGFR-2 = VEGFR-2 (Homo sapiens, UniProt P35968); assay: Kinase inhibitory activity on VEGFR-2; assay type: biochemical; conditions: mean of two independent experiments ± SD
Sequence of VEGFR-2 (P35968 20-1356, species assumed): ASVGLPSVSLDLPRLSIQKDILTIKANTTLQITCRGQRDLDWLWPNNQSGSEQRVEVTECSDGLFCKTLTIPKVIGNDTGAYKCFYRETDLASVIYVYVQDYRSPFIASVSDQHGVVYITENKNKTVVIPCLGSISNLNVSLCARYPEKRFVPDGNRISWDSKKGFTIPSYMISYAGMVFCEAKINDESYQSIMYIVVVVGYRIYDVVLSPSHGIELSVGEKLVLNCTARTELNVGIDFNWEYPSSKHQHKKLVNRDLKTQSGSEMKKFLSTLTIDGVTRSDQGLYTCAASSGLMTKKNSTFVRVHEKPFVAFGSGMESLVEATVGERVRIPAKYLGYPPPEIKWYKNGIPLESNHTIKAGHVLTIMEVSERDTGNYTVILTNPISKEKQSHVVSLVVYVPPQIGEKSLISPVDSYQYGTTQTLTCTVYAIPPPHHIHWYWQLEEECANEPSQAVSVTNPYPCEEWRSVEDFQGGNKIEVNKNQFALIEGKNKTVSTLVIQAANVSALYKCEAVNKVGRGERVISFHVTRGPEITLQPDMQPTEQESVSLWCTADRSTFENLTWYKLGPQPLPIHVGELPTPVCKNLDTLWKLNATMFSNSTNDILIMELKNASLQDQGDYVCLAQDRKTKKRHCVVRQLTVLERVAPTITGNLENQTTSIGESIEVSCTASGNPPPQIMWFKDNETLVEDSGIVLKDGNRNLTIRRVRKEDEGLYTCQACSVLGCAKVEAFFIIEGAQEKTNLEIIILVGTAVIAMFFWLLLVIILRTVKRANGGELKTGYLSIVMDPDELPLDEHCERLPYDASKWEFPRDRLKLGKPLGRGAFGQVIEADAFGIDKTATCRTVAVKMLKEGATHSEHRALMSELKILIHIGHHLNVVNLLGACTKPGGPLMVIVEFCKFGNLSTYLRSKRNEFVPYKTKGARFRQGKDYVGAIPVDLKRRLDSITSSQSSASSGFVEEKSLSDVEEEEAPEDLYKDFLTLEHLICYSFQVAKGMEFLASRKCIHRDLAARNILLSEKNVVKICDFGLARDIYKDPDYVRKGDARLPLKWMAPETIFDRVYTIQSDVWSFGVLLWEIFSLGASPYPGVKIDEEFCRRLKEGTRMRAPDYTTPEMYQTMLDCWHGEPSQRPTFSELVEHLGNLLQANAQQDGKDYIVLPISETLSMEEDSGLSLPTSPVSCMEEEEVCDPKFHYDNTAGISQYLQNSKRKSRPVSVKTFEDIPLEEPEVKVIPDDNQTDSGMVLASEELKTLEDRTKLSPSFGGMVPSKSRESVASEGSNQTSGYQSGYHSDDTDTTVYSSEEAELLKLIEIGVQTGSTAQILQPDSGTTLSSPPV

FGFR-1 = FGFR-1 (Homo sapiens, UniProt P11362); assay: Kinase inhibitory activity on FGFR-1; assay type: biochemical; conditions: mean of two independent experiments ± SD
Sequence of FGFR-1 (P11362 22-822, species assumed): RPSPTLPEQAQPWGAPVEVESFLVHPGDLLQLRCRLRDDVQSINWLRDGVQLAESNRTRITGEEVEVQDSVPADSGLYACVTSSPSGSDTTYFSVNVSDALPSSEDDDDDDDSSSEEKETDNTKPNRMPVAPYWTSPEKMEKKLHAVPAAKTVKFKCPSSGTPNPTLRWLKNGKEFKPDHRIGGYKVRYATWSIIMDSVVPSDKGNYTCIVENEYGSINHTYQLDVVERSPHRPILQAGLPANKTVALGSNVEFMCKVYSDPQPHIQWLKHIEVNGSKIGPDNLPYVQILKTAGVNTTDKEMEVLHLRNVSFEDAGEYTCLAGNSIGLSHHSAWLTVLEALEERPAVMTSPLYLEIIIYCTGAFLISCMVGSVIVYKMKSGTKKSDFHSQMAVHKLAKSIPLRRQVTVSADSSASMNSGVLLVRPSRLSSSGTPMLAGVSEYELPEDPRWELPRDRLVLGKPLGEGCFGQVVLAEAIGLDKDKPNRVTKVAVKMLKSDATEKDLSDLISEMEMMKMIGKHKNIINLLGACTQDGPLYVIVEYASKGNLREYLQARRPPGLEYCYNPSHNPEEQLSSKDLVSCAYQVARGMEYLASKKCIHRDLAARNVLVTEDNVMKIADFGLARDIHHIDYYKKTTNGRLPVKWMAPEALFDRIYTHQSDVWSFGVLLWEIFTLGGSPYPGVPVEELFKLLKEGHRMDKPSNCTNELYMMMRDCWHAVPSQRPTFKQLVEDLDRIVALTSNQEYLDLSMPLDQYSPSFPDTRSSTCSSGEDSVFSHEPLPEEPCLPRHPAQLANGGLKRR

## COc1ccc2c(c1)C(=NNC(=O)COc1cc(-c3nc4ccccc4s3)ccc1OC)C(=O)N2 [Compound 9o, 2-(5-(Benzo[d]thiazol-2-yl)-2-methoxyphenoxy)-N′-(5-methoxy-2-oxoindolin-3-ylidene)acetohydrazide]
K-562; Homo sapiens, K562, K-562, five dose
  GI50: 3.75 µM
K-562; K-562, 10 μM
  GI%: 64.36%
MOLT-4; Homo sapiens, MOLT-4, five dose
  GI50: 5.05 µM
MOLT-4; MOLT-4, 10 μM
  GI%: 36.32%
SR; 10 μM
  GI%: 35.47%
SR; Homo sapiens, five dose
  GI50: 20.9 µM
COLO 205
  GI50: 10.6 µM
HCC-2998; HCC-2998, 10 μM
  GI%: 44.35%
HCC-2998; Homo sapiens, HCC-2998, five dose
  GI50: 5.34 µM
HCT-116; HCT-116, 10 μM
  GI%: 87.90%
HCT-116; Homo sapiens, HCT-116, five dose
  GI50: 4.5 µM
HCT-15; HCT-15, 10 μM
  GI%: 127.40%
HCT-15; Homo sapiens, HCT-15, five dose
  GI50: 3.6 µM
HT29; HT29, 10 μM
  GI%: 20.32%
HT29; Homo sapiens, HT-29, HT29, five dose
  GI50: 26.8 µM
KM12; Homo sapiens, KM12, five dose
  GI50: > 100 µM
KM12; KM12, 10 μM
  GI%: 36.53%
SW-620; Homo sapiens, SW-620, five dose
  GI50: 2.27 µM
SW-620; SW-620, 10 μM
  GI%: 148.26%
SF-268; Homo sapiens, SF-268, five dose
  GI50: > 100 µM
SF-268; SF-268, 10 μM
  GI%: 51.91%
SF-295; Homo sapiens, SF-295, five dose
  GI50: 11.8 µM
SF-295; SF-295, 10 μM
  GI%: 31.59%
SF-539; Homo sapiens, SF-539, five dose
  GI50: 39.9 µM
SF-539; SF-539, 10 μM
  GI%: 12.44%
SNB-19; Homo sapiens, SNB-19, five dose
  GI50: 5.72 µM
SNB-19; SNB-19, 10 μM
  GI%: 49.50%
SNB-75
  GI%: – (GI% < 5%)
U251; Homo sapiens, U-251, U251, five dose
  GI50: 2.02 µM
U251; U251, 10 μM
  GI%: 143.46%
LOX IMVI; 10 μM
  GI%: 160.95%
LOX IMVI; Homo sapiens, five dose
  GI50: 4.09 µM
M14; Homo sapiens, M14, five dose
  GI50: 47.4 µM
M14; M14, 10 μM
  GI%: 39.13%
MALME-3M; 10 μM
  GI%: 35.23%
MALME-3M; Homo sapiens, five dose
  GI50: 2.28 µM
MDA-MB-435; Homo sapiens, MDA-MB-435, five dose
  GI50: 20.6 µM
MDA-MB-435; MDA-MB-435, 10 μM
  GI%: 96.57%
SK-MEL-28; Homo sapiens, SK-MEL-28, five dose
  GI50: > 100 µM
SK-MEL-28; SK-MEL-28, 10 μM
  GI%: 37.85%
SK-MEL-2; Homo sapiens, SK-MEL-2, five dose
  GI50: > 100 µM
SK-MEL-2; SK-MEL-2, 10 μM
  GI%: 26.06%
SK-MEL-5; Homo sapiens, SK-MEL-5, five dose
  GI50: 41.5 µM
SK-MEL-5; SK-MEL-5, 10 μM
  GI%: 24.21%
UACC-257; Homo sapiens, UACC-257, five dose
  GI50: > 100 µM
UACC-257; UACC-257, 10 μM
  GI%: – (GI% < 5%)
UACC-62; Homo sapiens, UACC-62, five dose
  GI50: 59.3 µM
UACC-62; UACC-62, 10 μM
  GI%: – (GI% < 5%)
DU-145; DU-145, 10 μM
  GI%: 130.12%
DU-145; Homo sapiens, DU-145, five dose
  GI50: 2.92 µM
PC-3; Homo sapiens, PC-3, five dose
  GI50: 3.78 µM
PC-3; PC-3, 10 μM
  GI%: 49.56%
CDK2; from IC50 of Tables 4 and 5
  kinase selectivity: higher selectivity toward CDK2 and CDK5 over CDK1, VEGFR-2 and FGFR-1
CDK2; mean of two independent experiments ± SD
  IC50: 0.21 ± 0.015 µM
VEGFR-2
  IC50: > 10 µM
FGFR-1
  IC50: > 10 µM
